Assay results from patent publication US6436911B1, “IL-12 production inhibitor” (Seikagaku Corporation, priority 1999, dated 2002).

Key:
[1] = system: IL-12; assay: Plasma IL-12 level (IL-12 p70 ELISA) in MRL-lpr/lpr mice after administration; type: in vivo; details: day before autopsy
Description: Plasma IL-12 levels were examined using MRL-lpr/lpr mice treated with and without L4. Macrophages from MRL-lpr/lpr mice are known to markedly produce IL-12 and their serum IL-12 level is high (J. Exp. Med., 183, pp. 1447-1459 (1996)).
(§1) MRL lpr/lpr mice, C57BL/6 mice and ICR mice as normal controls were purchased from Japan Charles River Co., Ltd. and preliminarily maintained for several weeks before divided into groups. Blood was collected from the orbital venous plexus, and they were allocated according to the plasma creatinine level (CRE) as a first marker so that there would be no difference in the average value and the standard deviation for the creatinine level among the groups. They were also grouped so that there would be no difference in the plasma nitrogen level (BUN), white blood cell count (WBC), platelet count (PLT) and weight between groups as far as possible.
The test substances were administered from the next day of the grouping. […]
Blood was collected from the orbital venous plexus at the time of the grouping and on the day before the autopsy. The IL-12 concentration in blood plasma was measured by using an IL-12 p70 ELISA kit (Endogen, Inc.).
(§2) The average value and the standard deviation were calculated for the measured values obtained as above and the statistical significance was analyzed by Williams' multiple comparison test. […]

[2] = system: MRL-lpr/lpr mice; assay: Hematological test: white blood cell count (WBC) in blood of MRL-lpr/lpr mice; type: in vivo; details: day before autopsy
Description: as §1
The test substances were administered from the next day of the grouping. Each of the test substances was dissolved in distilled water at a predetermined concentration to prepare a solution to be administered. The solution was intermittently administered 3 times per week for 4 weeks (total 12 doses). […]
Blood was collected from the orbital venous plexus at the time of the grouping and on the day before the autopsy. The white blood cell count (WBC) was measured by using an automatic cytometer for multiple test items (Sysmex K-2000: Toa Medical Electronics).
as §2

[3] = system: MRL-lpr/lpr mice; assay: Biochemical blood test: plasma creatinine (CRE) and urea nitrogen (BUN) in MRL-lpr/lpr mice; type: in vivo; details: Example 3; L4 3.2 mg/kg i.n.; 6 weeks; day before autopsy (FIG. 4)
Description: 9-Week old MRL lpr/lpr mice, C57BL/6 mice and ICR mice were purchased from Japan Charles River Co., Ltd. and preliminarily maintained for 6 weeks before divided into groups. The groups used were as follows.
Each of the test substance was dissolved in distilled water at a predetermined concentration to prepare a solution to be administered. The solution was intermittently administered 3 times per week for 6 weeks (total […]). Observation was performed for 45 days from the start of administration through the autopsy. Other conditions and methods were the same as those of Example 2.
Blood was collected from the orbital venous plexus and plasma creatinine level (CRE) and plasma urea nitrogen level (BUN) were measured by using an automatic analyzer for clinical chemistry (COBAS MIRA S: Nippon Roche) at the time of the grouping and on the day before the autopsy.

[4] = system: peritoneal macrophages isolated from MRL mice; assay: LPS-stimulated IL-12 p70 production in peritoneal macrophages from MRL lpr/lpr mice; type: cell-based; details: for IL-12 p70 production, simultaneous treatment with LPS and test substance: LPS 100 ng/ml, various concentrations, 8-week-old and 39-week-old MRL mice (FIG. 6; L4L4 FIG. 12)
Description: Five to seven milliliters of ice-cooled Hank's balanced salt solution was injected in the abdominal cavities of 8- to 39-week-old MRL lpr/lpr mice and extracted 5 minutes later to collect resident peritoneal cells. The collected cells were cultured overnight in RPMI medium contained in a 96-well flat-bottom plate at 37° C. in the presence of 5% CO2. After the cultivation, non-adherent cells were removed and adherent cells were used as peritoneal macrophages for the experiment.
The cells were treated with lipopolysaccharide (LPS, List Biological Laboratories, Inc.) for 24 hours to stimulate IL-12 production. The concentration of IL-12 p70 in the cell culture supernatant was measured by using an IL-12 p70 ELISA kit (Endogen, Inc.) to evaluate the IL-12 production. As for the measured values, the average value and the standard deviation were obtained. Unless otherwise mentioned, the statistical significance was examined by the Williams' multiple comparison test.
The stimulation was performed for 24 hours in the medium containing LPS (100 ng/ml) and various concentrations of L4, and then the IL-12 production was evaluated.
Macrophages were treated with 100 ng/ml of LPS for 0, 2 or 6 hours, and then the medium was replaced with a fresh medium containing 1000 ng/ml of L4 or a fresh medium only (L4(-)) (consequently, IL-12 produced by the pretreatment was removed). 24 hours after the replacement of the medium, the IL-12 production was evaluated.
First, macrophages were treated with L4 at various concentrations for 24 hours and the medium was replaced with a medium containing 100 ng/ml of LPS. 24 hours after the replacement of the medium, the IL-12 production was evaluated.
The IL-12 production in the macrophages of MRL-lpr/lpr mice, pretreated with or without 1000 ng/ml of L4 for 24 hours then treated with 100 ng/ml of LPS for 24 hours (L4 pretreatment), and the treated with 100 ng/ml LPS together with or without 1000 ng/ml of L4 (simultaneous treatment), were compared. In FIG. 11, * and ** indicate that there was statistical significance at levels of p<0.05 and p<0.01, respectively, according to the Student's t-test.

[5] = system: peritoneal macrophages isolated from C57BL/6 mice; assay: LPS-stimulated IL-12 p70 production in peritoneal macrophages from C57BL/6 mice; type: cell-based
[6] = system: synovial cells collected from human rheumatoid arthritis patients; assay: IL-12 p70 production in synovial cells from rheumatoid arthritis patients (LPS + IFN-γ); type: cell-based; details: LPS 500 ng/ml, IFN-γ 50 U/ml
Description: A cell suspension was prepared by suspending synovial cells collected from human rheumatoid arthritis patients in RPMI1640 medium (Sigma) containing 500 ng/ml of LPS, 50 U/ml of recombinant mouse interferon-γ (IFN-γ) and 10% fetal bovine serum at a concentration of 1×10^6cells/ml.
100 μl of the aforementioned cell suspension was dispensed to a 96-well flat-bottom plate and further 100 μl of L4 solution of which concentration was adjusted to be twice the final concentration in the RPMI1640 medium was added thereto. Then, the cells were cultured at 37° C. in the presence of 5% CO2 for 24 hours.
(§3) Subsequently, the plate was centrifuged to collect the culture supernatant. The IL-12 concentration in the supernatant was measured as described above.

[7] = system: peritoneal macrophages isolated from C3H/HeN mice; assay: IL-12 production in peritoneal macrophages from C3H/HeN mice (LPS + IFN-γ); type: cell-based; details: LPS 200 ng/ml, IFN-γ 2 U/ml, 24 hours, various L3 concentrations (FIG. 14)
Description: Ice-cooled phosphate buffered saline (PBS) was injected into abdominal cavities of C3H/HeN mice. After the abdomen of each mouse was massaged, the PBS was collected and centrifuged to obtain macrophages. A cell suspension was prepared by suspending the obtained macrophages in RPMI1640 medium (Sigma) containing 200 ng/ml of LPS, 2 U/ml of recombinant mouse interferon-γ (IFN-γ) and 10% fetal bovine serum at a concentration of 1×10^6 cells/ml. 100 μl of the cell suspension was dispensed on a 96-well flat-bottom plate and further 100 μl of L3 solution of which concentration was adjusted to be twice the final concentration in the RPMI1640 medium was added thereto. Then, the cells were cultured at 37° C. in the presence of 5% CO2 for 24 hours.
as §3

Structure (SMILES) | IL-12 level in plasma ([1]; Example 2, L4 1.6 mg/kg i.n. and 80 mg/kg p.o., 3 times per week for 4 weeks, p<0.05/p<0.01 (FIG. 2)) | IL-12 level in plasma ([1]; Example 3, L4 3.2 mg/kg i.n., 3 times per week for 6 weeks, p<0.01 (FIG. 5)) | white blood cell count (WBC) in blood ([2]; Example 2, low dose L4 administered groups, 3 times per week for 4 weeks, vs DW group, p<0.05 (FIG. 1)) | white blood cell count (WBC) in blood ([2]; Example 3, L4 3.2 mg/kg i.n., 3 times per week for 6 weeks, p<0.05 (FIG. 3)) | plasma creatinine level (CRE) [3] | plasma urea nitrogen level (BUN) [3] | IL-12 p70 production, L4 pretreatment compared with simultaneous treatment ([4]; 1000 ng/ml L4, 100 ng/ml LPS, 24 hours (FIG. 11)) | IL-12 p70 production, stimulation with LPS after pretreatment with L4, high doses ([4]; L4 100 ng/ml or more, 24 hours, then LPS 100 ng/ml 24 hours (FIG. 9)) | IL-12 p70 production, stimulation with LPS after pretreatment with L4 ([4]; L4 various concentrations 24 hours, then LPS 100 ng/ml 24 hours (FIG. 9)) | IL-12 p70 production, treatment with L4 after preliminary stimulation with LPS ([4]; LPS 100 ng/ml for 2 and 6 hours, then 1000 ng/ml L4, 24 hours (FIG. 8)) | IL-12 p70 production, simultaneous treatment with LPS and test substance ([4]; 24 hours) | IL-12 p70 production, stimulation with LPS after pretreatment with L4 ([5]; C57BL/6 mice, pretreated with L4 for 36 hours (FIG. 10)) | IL-12 p70 production, simultaneous treatment with LPS and L4 ([5]; LPS 100 ng/ml, 24 hours, various concentrations of L4, C57BL/6 mice (FIG. 7)) | IL-12 production in synovial cells at 1000 ng/ml ([6]; 1000 ng/ml L4, 24 hours (FIG. 13)) | IL-12 production in synovial cells ([6]; 24 hours, various L4 concentrations (FIG. 13)) | IL-12 production of macrophages [7]
CC(=O)N[C@H]1C(O)O[C@H](COS(=O)(=O)O)[C@@H](O[C@@H]2O[C@H](COS(=O)(=O)O)[C@H](O)[C@H](O)[C@H]2O)[C@@H]1O (stereo partly drawn) [L4, Gal(6S)β1-4GlcNAc(6S)] | significant inhibition of the increase in IL-12 | significant inhibition of the increase in the IL-12 | significant inhibition of the increase in WBC | significant inhibition of the increase in WBC | significant decrease | significant decrease | inhibits IL-12 production more efficiently compared with the simultaneous treatment | almost completely inhibited | L4 pretreatment inhibits the IL-12 production | Inhibition of the IL-12 production by L4 was also observed | dose-dependent inhibitory effect on the IL-12 production | The same results were also obtained | The same result was also obtained | almost halved | tendency that addition of L4 inhibited IL-12 production | –
CC(=O)NC1C(O)OC(COS(=O)(=O)[O-])C(OC2OC(COS(=O)(=O)[O-])C(O)C(OC3OC(COS(=O)(=O)[O-])C(OC4OC(COS(=O)(=O)[O-])C(O)C(O)C4O)C(O)C3NC(C)=O)C2O)C1O.[Na+].[Na+].[Na+].[Na+] [L4L4, Gal(6S)β1-4GlcNAc(6S)β1-3Gal(6S)β1-4GlcNAc(6S)] | – | – | – | – | – | – | – | – | – | – | The same result was obtained | – | – | – | – | –
CC(=O)N[C@H]1C(O)O[C@H](CO)[C@@H](O[C@@H]2O[C@H](COS(=O)(=O)O)[C@H](O)[C@H](O)[C@H]2O)[C@@H]1O (stereo partly drawn) [L3, Gal(6S)β1-4GlcNAc] | – | – | – | – | – | – | – | – | – | – | – | – | – | – | – | inhibited IL-12 production of macrophages in a dose-dependent manner
